Measured values reported in US4868321A, “Isothiocyanate intermediates” (FMC Corporation, priority 1988, dated 1989).

Experiments:
Type in all cases: in vivo
Cotton [1] = assay: Preemergence Herbicidal Activity, Cotton; details: Gossypium hirsutum, pre-emergence; for plant injury at 1000 g/ha: 1.0 kg/ha; for plant injury at 500 g/ha: 0.5 kg/ha
Source text: (§1) The herbicidal data in the following Tables 3 and 4 was obtained in the manner described in PCT published application no. WO 85/01939, previously mentioned, usually employing solutions of the herbicidal compound in 50/50 acetone/water mixtures. In those tables, the test compounds are identified by numbers which correspond to those in Table 1, "kg/ha" is kilograms per hectare, and "% C" is percent control.

Soybean [2] = assay: Preemergence Herbicidal Activity, Soybean; details: Glycine max, pre-emergence; for plant injury at 1000 g/ha: 1.0 kg/ha; for plant injury at 500 g/ha: 0.5 kg/ha
Source text: (§2) The herbicidal data in the following Tables 3 and 4 was obtained in the manner described in PCT published application no. […] In those tables, the test compounds are identified by numbers which correspond to those in Table 1, "kg/ha" is kilograms per hectare, and "% C" is percent control.

Field Corn [3] = assay: Preemergence Herbicidal Activity, Field Corn; details: Zea mays, pre-emergence; for plant injury at 1000 g/ha: 1.0 kg/ha; for plant injury at 500 g/ha: 0.5 kg/ha
Source text: as §2

Rice [4] = assay: Preemergence Herbicidal Activity, Rice; details: Oryza sativa, pre-emergence; for plant injury at 1000 g/ha: 1.0 kg/ha; for plant injury at 500 g/ha: 0.5 kg/ha
Source text: as §2

Wheat [5] = assay: Preemergence Herbicidal Activity, Wheat; details: Triticum aestivum, pre-emergence; for plant injury at 1000 g/ha: 1.0 kg/ha; for plant injury at 500 g/ha: 0.5 kg/ha
Source text: as §2

Field Bindweed [6] = assay: Preemergence Herbicidal Activity, Field Bindweed; details: pre-emergence; for pest or weed control at 1000 g/ha: 1.0 kg/ha; for pest or weed control at 500 g/ha: 0.5 kg/ha
Source text: as §1

Morningglory [7] = assay: Preemergence Herbicidal Activity, Morningglory; details: Ipomoea, pre-emergence; for pest or weed control at 1000 g/ha: 1.0 kg/ha; for pest or weed control at 500 g/ha: 0.5 kg/ha
Source text: as §1

Velvetleaf [8] = assay: Preemergence Herbicidal Activity, Velvetleaf; details: Abutilon theophrasti, pre-emergence; for pest or weed control at 1000 g/ha: 1.0 kg/ha; for pest or weed control at 500 g/ha: 0.5 kg/ha
Source text: as §1

Barnyardgrass [9] = assay: Preemergence Herbicidal Activity, Barnyardgrass; details: Echinochloa crus-galli, pre-emergence; for pest or weed control at 1000 g/ha: 1.0 kg/ha; for pest or weed control at 500 g/ha: 0.5 kg/ha
Source text: as §2

Green Foxtail [10] = assay: Preemergence Herbicidal Activity, Green Foxtail; details: Setaria viridis, pre-emergence; for pest or weed control at 1000 g/ha: 1.0 kg/ha; for pest or weed control at 500 g/ha: 0.5 kg/ha
Source text: as §2

Johnsongrass [11] = assay: Preemergence Herbicidal Activity, Johnsongrass; details: Sorghum halepense, pre-emergence; for pest or weed control at 1000 g/ha: 1.0 kg/ha; for pest or weed control at 500 g/ha: 0.5 kg/ha
Source text: as §2

Cotton [12] = assay: Postemergence Herbicidal Activity, Cotton; details: Gossypium hirsutum, post-emergence; for plant injury at 1000 g/ha: 1.0 kg/ha; for plant injury at 500 g/ha: 0.5 kg/ha
Source text: as §1

Soybean [13] = assay: Postemergence Herbicidal Activity, Soybean; details: Glycine max, post-emergence; for plant injury at 1000 g/ha: 1.0 kg/ha; for plant injury at 500 g/ha: 0.5 kg/ha
Source text: as §2

Field Corn [14] = assay: Postemergence Herbicidal Activity, Field Corn; details: Zea mays, post-emergence; for plant injury at 1000 g/ha: 1.0 kg/ha; for plant injury at 500 g/ha: 0.5 kg/ha
Source text: as §2

Rice [15] = assay: Postemergence Herbicidal Activity, Rice; details: Oryza sativa, post-emergence; for plant injury at 1000 g/ha: 1.0 kg/ha; for plant injury at 500 g/ha: 0.5 kg/ha
Source text: as §2

Wheat [16] = assay: Postemergence Herbicidal Activity, Wheat; details: Triticum aestivum, post-emergence; for plant injury at 1000 g/ha: 1.0 kg/ha; for plant injury at 500 g/ha: 0.5 kg/ha
Source text: as §2

Field Bindweed [17] = assay: Postemergence Herbicidal Activity, Field Bindweed; details: post-emergence; for pest or weed control at 1000 g/ha: 1.0 kg/ha; for pest or weed control at 500 g/ha: 0.5 kg/ha
Source text: as §1

Morningglory [18] = assay: Postemergence Herbicidal Activity, Morningglory; details: Ipomoea, post-emergence; for pest or weed control at 1000 g/ha: 1.0 kg/ha; for pest or weed control at 500 g/ha: 0.5 kg/ha
Source text: as §1

Velvetleaf [19] = assay: Postemergence Herbicidal Activity, Velvetleaf; details: Abutilon theophrasti, post-emergence; for pest or weed control at 1000 g/ha: 1.0 kg/ha; for pest or weed control at 500 g/ha: 0.5 kg/ha
Source text: as §1

Barnyardgrass [20] = assay: Postemergence Herbicidal Activity, Barnyardgrass; details: Echinochloa crus-galli, post-emergence; for pest or weed control at 1000 g/ha: 1.0 kg/ha; for pest or weed control at 500 g/ha: 0.5 kg/ha
Source text: as §2

Green Foxtail [21] = assay: Postemergence Herbicidal Activity, Green Foxtail; details: Setaria viridis, post-emergence; for pest or weed control at 1000 g/ha: 1.0 kg/ha; for pest or weed control at 500 g/ha: 0.5 kg/ha
Source text: as §2

Johnsongrass [22] = assay: Postemergence Herbicidal Activity, Johnsongrass; details: Sorghum halepense, post-emergence; for pest or weed control at 1000 g/ha: 1.0 kg/ha; for pest or weed control at 500 g/ha: 0.5 kg/ha
Source text: as §2

CCOC(=O)CN(c1cc(-n2nnn(CCCF)c2=O)c(F)cc1Cl)S(=O)(=O)CC [Compound 17, ethyl [2-chloro-4-fluoro-5-[1,4-dihydro-5-oxo-4-(3-fluoropropyl)tetrazol-1-yl]-phenyl(N--ethylsulfonyl)amino]-acetate] gave a plant injury at 1000 g/ha (Cotton [1]) of 10%, a plant injury at 1000 g/ha (Soybean [2]) of 10% and a plant injury at 1000 g/ha (Field Corn [3]) of 10%. It also gave a plant injury at 1000 g/ha (Rice [4]) of 10%, a plant injury at 1000 g/ha (Wheat [5]) of 20% and a pest or weed control at 1000 g/ha (Field Bindweed [6]) of 10%. For the same compound, the pest or weed control at 1000 g/ha (Morningglory [7]) was 30%, the pest or weed control at 1000 g/ha (Velvetleaf [8]) was 90% and the pest or weed control at 1000 g/ha (Barnyardgrass [9]) was 20%. For the same compound, the pest or weed control at 1000 g/ha (Green Foxtail [10]) was 30%, the pest or weed control at 1000 g/ha (Johnsongrass [11]) was 60% and the plant injury at 1000 g/ha (Cotton [12]) was 90%. For the same compound, the plant injury at 1000 g/ha (Soybean [13]) was 50%, the plant injury at 1000 g/ha (Field Corn [14]) was 60% and the plant injury at 1000 g/ha (Rice [15]) was 20%. The plant injury at 1000 g/ha (Wheat [16]) was 40%, the pest or weed control at 1000 g/ha (Field Bindweed [17]) was 80% and the pest or weed control at 1000 g/ha (Morningglory [18]) was 60%. For the same compound, the pest or weed control at 1000 g/ha (Velvetleaf [19]) was 95%, the pest or weed control at 1000 g/ha (Barnyardgrass [20]) was 40% and the pest or weed control at 1000 g/ha (Green Foxtail [21]) was 40%. It also gave a pest or weed control at 1000 g/ha (Johnsongrass [22]) of 40%.
CCS(=O)(=O)N(c1cc(-n2nnn(CCCF)c2=O)c(F)cc1F)S(=O)(=O)CC [Compound 20, 1-(2,4-difluoro-5-[bis(N--ethylsulfonyl)amino]phenyl]-1,4-dihydro-4-(3-fluoropropyl)-5H--tetrazol-5-one] was tested, and the plant injury at 500 g/ha (Cotton [1]) was 90%, the plant injury at 500 g/ha (Soybean [2]) was 20% and the plant injury at 500 g/ha (Field Corn [3]) was 90%. For the same compound, the plant injury at 500 g/ha (Rice [4]) was 70%, the plant injury at 500 g/ha (Wheat [5]) was 30% and the pest or weed control at 500 g/ha (Field Bindweed [6]) was 20%. It also gave a pest or weed control at 500 g/ha (Morningglory [7]) of 70%, a pest or weed control at 500 g/ha (Velvetleaf [8]) of 100% and a pest or weed control at 500 g/ha (Barnyardgrass [9]) of 90%. The pest or weed control at 500 g/ha (Green Foxtail [10]) was 95%, the pest or weed control at 500 g/ha (Johnsongrass [11]) was 90% and the plant injury at 500 g/ha (Cotton [12]) was 90%. The plant injury at 500 g/ha (Soybean [13]) was 30%, the plant injury at 500 g/ha (Field Corn [14]) was 20% and the plant injury at 500 g/ha (Rice [15]) was 20%. It also gave a plant injury at 500 g/ha (Wheat [16]) of 50%, a pest or weed control at 500 g/ha (Field Bindweed [17]) of 30% and a pest or weed control at 500 g/ha (Morningglory [18]) of 90%. For the same compound, the pest or weed control at 500 g/ha (Velvetleaf [19]) was 100%, the pest or weed control at 500 g/ha (Barnyardgrass [20]) was 30% and the pest or weed control at 500 g/ha (Green Foxtail [21]) was 40%. It also gave a pest or weed control at 500 g/ha (Johnsongrass [22]) of 30%.
In the case of CCS(=O)(=O)N(c1cc(-n2nnn(CCCF)c2=O)c(F)cc1Br)S(=O)(=O)CC [Compound 22, 1-[4-bromo-2-fluoro-5-[bis(N--ehtylsulfonyl)amino]phenyl]-1,4-dihydro-4-(3-fluoropropyl)-5H--tetrazol-5-one], the plant injury at 1000 g/ha (Cotton [1]) is reported as 100%, the plant injury at 1000 g/ha (Soybean [2]) is reported as 60% and the plant injury at 1000 g/ha (Field Corn [3]) is reported as 95%. The plant injury at 1000 g/ha (Rice [4]) was 80%, the plant injury at 1000 g/ha (Wheat [5]) was 90% and the pest or weed control at 1000 g/ha (Field Bindweed [6]) was 100%. For the same compound, the pest or weed control at 1000 g/ha (Morningglory [7]) was 100%, the pest or weed control at 1000 g/ha (Velvetleaf [8]) was 100% and the pest or weed control at 1000 g/ha (Barnyardgrass [9]) was 100%. The pest or weed control at 1000 g/ha (Green Foxtail [10]) was 100%, the pest or weed control at 1000 g/ha (Johnsongrass [11]) was 100% and the plant injury at 1000 g/ha (Cotton [12]) was 100%. For the same compound, the plant injury at 1000 g/ha (Soybean [13]) was 95%, the plant injury at 1000 g/ha (Field Corn [14]) was 100% and the plant injury at 1000 g/ha (Rice [15]) was 80%. For the same compound, the plant injury at 1000 g/ha (Wheat [16]) was 90%, the pest or weed control at 1000 g/ha (Field Bindweed [17]) was 95% and the pest or weed control at 1000 g/ha (Morningglory [18]) was 95%. For the same compound, the pest or weed control at 1000 g/ha (Velvetleaf [19]) was 100%, the pest or weed control at 1000 g/ha (Barnyardgrass [20]) was 100% and the pest or weed control at 1000 g/ha (Green Foxtail [21]) was 100%. For the same compound, the pest or weed control at 1000 g/ha (Johnsongrass [22]) was 100%.
With CCCS(=O)(=O)N(c1cc(-n2nnn(CCCF)c2=O)c(F)cc1F)S(=O)(=O)CCC [Compound 25] the plant injury at 500 g/ha (Cotton [1]) was 10%, the plant injury at 500 g/ha (Soybean [2]) was 20% and the plant injury at 500 g/ha (Field Corn [3]) was 80%. For the same compound, the plant injury at 500 g/ha (Rice [4]) was 20%, the plant injury at 500 g/ha (Wheat [5]) was 20% and the pest or weed control at 500 g/ha (Field Bindweed [6]) was 0%. For the same compound, the pest or weed control at 500 g/ha (Morningglory [7]) was 10%, the pest or weed control at 500 g/ha (Velvetleaf [8]) was 20% and the pest or weed control at 500 g/ha (Barnyardgrass [9]) was 50%. The pest or weed control at 500 g/ha (Green Foxtail [10]) was 10%, the pest or weed control at 500 g/ha (Johnsongrass [11]) was 60% and the plant injury at 500 g/ha (Cotton [12]) was 40%. The plant injury at 500 g/ha (Soybean [13]) was 20%, the plant injury at 500 g/ha (Field Corn [14]) was 60% and the plant injury at 500 g/ha (Rice [15]) was 20%. For the same compound, the plant injury at 500 g/ha (Wheat [16]) was 20%, the pest or weed control at 500 g/ha (Field Bindweed [17]) was 40% and the pest or weed control at 500 g/ha (Morningglory [18]) was 30%. The pest or weed control at 500 g/ha (Velvetleaf [19]) was 80%, the pest or weed control at 500 g/ha (Barnyardgrass [20]) was 20% and the pest or weed control at 500 g/ha (Green Foxtail [21]) was 30%. For the same compound, the pest or weed control at 500 g/ha (Johnsongrass [22]) was 20%.
